In the supplement of paper PMC7017272:
± gives the standard deviation of the averaged measurements.

What was measured:
Settings in all cases: treatment time: 3 days
UT-SCC-24B = test: drug sensitivity score (DSS); higher = more sensitive; extreme values may be limits of the assay
Method in brief: (§1)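 Viability of HPV-negative HNSCC cell lines was measured by CellTiter-Glo 2.0 luminescence. Cells were seeded at 500 cells/well in 384-well plates on plastic, on Matrigel- or Myogel-coated wells (500 µg/mL), or embedded in Matrigel or Myogel plus rat collagen I, then given compounds at five 10-fold concentrations for 3 days, with signals normalised to vehicle (0.1% DMSO) and cell-killing control wells. Fitting of percent-inhibition dose–response curves in the FIMM pipeline yielded IC50, maximal inhibition and drug sensitivity score.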

UT-SCC-73 [1] = test: as above
Method in brief: as §1

UT-SCC-81 = test: as above
Method in brief: as §1

UT-SCC-42A = test: as above
Method in brief: as §1

UT-SCC-40 = test: as above
Method in brief: as §1

UT-SCC-44 [2] = test: as above
Method in brief: as §1

UT-SCC-28 = test: as above
Method in brief: as §1

UT-SCC-42B = test: as above
Method in brief: as §1

UT-SCC-8 = test: as above
Method in brief: as §1

UT-SCC-14 = test: as above
Method in brief: as §1

UT-SCC-106A [3] = test: as above
Method in brief: as §1

UT-SCC-24A [4] = test: drug sensitivity score (DSS); higher = more sensitive
Experimental: (§2)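 HNSCC cell lines (500 cells/well, 384-well) were cultured on plastic, on top of (2D) or embedded (3D) in Matrigel or human leiomyoma matrix Myogel (500 ug/mL; Myogel 3D mixed with rat collagen I). Cells were treated for 3 days with 5 ten-fold concentrations of each drug, and viability was read by CellTiter-Glo. Suffixes _1/_2/_3 on drug names are replicates.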

UT-SCC-73 [5] = test: maximal % inhibition of viability relative to DMSO; higher = stronger effect
Method in brief: as §1

UT-SCC-44 [6] = test: as above
Method in brief: as §1

UT-SCC-106A [7] = test: as above
Method in brief: as §1

UT-SCC-24A [8] = test: maximal % inhibition of viability relative to DMSO; higher = stronger effect
Experimental: as §2, with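 “CellTiter-Glo. Viability was normalised to DMSO (0% inhibition) and 100 uM benzethonium chloride (100% inhibition) controls and fitted with the FIMM DSRT pipeline to give IC50 (nM), maximal % inhibition and the drug sensitivity score (DSS).” for “CellTiter-Glo.”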

[9] = culture condition: embedded in Matrigel
[10] = culture condition: embedded in Myogel + collagen I
[11] = culture condition: on top of Matrigel
[12] = culture condition: on top of Myogel
[13] = culture condition: plastic 2D (no matrix)

CO[C@H]1C[C@@H]2CC[C@@H](C)[C@@](O)(O2)C(=O)C(=O)N2CCCC[C@H]2C(=O)O[C@H]([C@H](C)C[C@@H]2CC[C@@H](OCCO)[C@H](OC)C2)CC(=O)[C@H](C)/C=C(\C)[C@@H](O)[C@@H](OC)C(=O)[C@H](C)C[C@H](C)/C=C/C=C/C=C/1C [Everolimus]
drug sensitivity score (UT-SCC-24B; [9]): 1.17 ± 1.5 DSS | drug sensitivity score (UT-SCC-24B; [10]): 5.5 ± 2.1 DSS | drug sensitivity score (UT-SCC-24B; [11]): 1.93 ± 1.7 DSS | drug sensitivity score (UT-SCC-24B; [12]): 4.07 ± 1.6 DSS | drug sensitivity score (UT-SCC-24B; [13]): 2.43 ± 1.4 DSS | drug sensitivity score (UT-SCC-73 [1]; [9]): 2.37 ± 1.2 DSS | drug sensitivity score (UT-SCC-73 [1]; [10]): 8.4 ± 7.2 DSS | drug sensitivity score (UT-SCC-73 [1]; [11]): 3.93 ± 1.3 DSS | drug sensitivity score (UT-SCC-73 [1]; [12]): 4.27 ± 1.7 DSS | drug sensitivity score (UT-SCC-73 [1]; [13]): 3.23 ± 0.51 DSS | drug sensitivity score (UT-SCC-81; [9]): 7.87 ± 6.4 DSS | drug sensitivity score (UT-SCC-81; [10]): 9.2 ± 0.62 DSS | drug sensitivity score (UT-SCC-81; [11]): 5 ± 0.76 DSS | drug sensitivity score (UT-SCC-81; [12]): 7.07 ± 1.8 DSS | drug sensitivity score (UT-SCC-81; [13]): 7.8 ± 0.44 DSS | drug sensitivity score (UT-SCC-42A; [9]): 0.933 ± 1.1 DSS | drug sensitivity score (UT-SCC-42A; [10]): 3.87 ± 0.76 DSS | drug sensitivity score (UT-SCC-42A; [11]): 2.6 ± 0.4 DSS | drug sensitivity score (UT-SCC-42A; [12]): 3.27 ± 0.83 DSS | drug sensitivity score (UT-SCC-42A; [13]): 2.07 ± 0.91 DSS | drug sensitivity score (UT-SCC-40; [9]): 3.83 ± 6 DSS | drug sensitivity score (UT-SCC-40; [10]): 3.13 ± 3.1 DSS | drug sensitivity score (UT-SCC-40; [11]): 2.1 ± 1.3 DSS | drug sensitivity score (UT-SCC-40; [12]): 1.8 ± 1.9 DSS | drug sensitivity score (UT-SCC-40; [13]): 1.73 ± 1.6 DSS | drug sensitivity score (UT-SCC-44 [2]; [9]): 2.47 ± 3.5 DSS | drug sensitivity score (UT-SCC-44 [2]; [10]): 5.4 ± 0.36 DSS | drug sensitivity score (UT-SCC-44 [2]; [11]): 6.83 ± 1.1 DSS | drug sensitivity score (UT-SCC-44 [2]; [12]): 7.67 ± 0.12 DSS | drug sensitivity score (UT-SCC-44 [2]; [13]): 5.07 ± 2 DSS | drug sensitivity score (UT-SCC-28; [9]): 3.57 ± 1.1 DSS | drug sensitivity score (UT-SCC-28; [10]): 3.37 ± 1.5 DSS | drug sensitivity score (UT-SCC-28; [11]): 2.63 ± 1.4 DSS | drug sensitivity score (UT-SCC-28; [13]): 4.63 ± 1.6 DSS | drug sensitivity score (UT-SCC-42B; [9]): 0 DSS | drug sensitivity score (UT-SCC-42B; [11]): 0.733 ± 0.67 DSS | drug sensitivity score (UT-SCC-42B; [12]): 0.433 ± 0.38 DSS | drug sensitivity score (UT-SCC-42B; [13]): 0.133 ± 0.12 DSS | drug sensitivity score (UT-SCC-8; [9]): 5.3 ± 2.3 DSS | drug sensitivity score (UT-SCC-8; [10]): 4.2 ± 6.5 DSS | drug sensitivity score (UT-SCC-8; [11]): 5.8 ± 6 DSS | drug sensitivity score (UT-SCC-8; [12]): 7.9 ± 6 DSS | drug sensitivity score (UT-SCC-8; [13]): 6.57 ± 3.2 DSS | drug sensitivity score (UT-SCC-14; [9]): 8.37 ± 3.1 DSS | drug sensitivity score (UT-SCC-14; [10]): 10.2 ± 3.4 DSS | drug sensitivity score (UT-SCC-14; [11]): 5.67 ± 2.2 DSS | drug sensitivity score (UT-SCC-14; [12]): 7.77 ± 2.7 DSS | drug sensitivity score (UT-SCC-14; [13]): 7.63 ± 2.4 DSS | drug sensitivity score (UT-SCC-106A [3]; [9]): 1.27 ± 0.31 DSS | drug sensitivity score (UT-SCC-106A [3]; [10]): 2.77 ± 0.81 DSS | drug sensitivity score (UT-SCC-106A [3]; [11]): 1.53 ± 1.4 DSS | drug sensitivity score (UT-SCC-106A [3]; [12]): 1.33 ± 0.6 DSS | drug sensitivity score (UT-SCC-106A [3]; [13]): 7.3 ± 6 DSS | drug sensitivity score (UT-SCC-24A [4]; [9]): 3.6 ± 6.2 DSS | drug sensitivity score (UT-SCC-24A [4]; [10]): 6.43 ± 3 DSS | drug sensitivity score (UT-SCC-24A [4]; [11]): 2.93 ± 2.3 DSS | drug sensitivity score (UT-SCC-24A [4]; [12]): 2.57 ± 0.21 DSS | drug sensitivity score (UT-SCC-24A [4]; [13]): 2.57 ± 0.25 DSS | maximal % inhibition of viability (UT-SCC-73 [5]; [9]): 22.8 ± 3.8% | maximal % inhibition of viability (UT-SCC-73 [5]; [10]): 46.1 ± 20% | maximal % inhibition of viability (UT-SCC-73 [5]; [11]): 26 ± 4.4% | maximal % inhibition of viability (UT-SCC-73 [5]; [12]): 34.8 ± 1.5% | maximal % inhibition of viability (UT-SCC-73 [5]; [13]): 28 ± 2.5% | maximal % inhibition of viability (UT-SCC-44 [6]; [9]): 30.9 ± 17% | maximal % inhibition of viability (UT-SCC-44 [6]; [10]): 45 ± 2.1% | maximal % inhibition of viability (UT-SCC-44 [6]; [11]): 34 ± 2.7% | maximal % inhibition of viability (UT-SCC-44 [6]; [12]): 37.7 ± 4.2% | maximal % inhibition of viability (UT-SCC-44 [6]; [13]): 33.1 ± 5.5% | maximal % inhibition of viability (UT-SCC-106A [7]; [9]): 30.8 ± 12% | maximal % inhibition of viability (UT-SCC-106A [7]; [10]): 20.6 ± 4.6% | maximal % inhibition of viability (UT-SCC-106A [7]; [11]): 40.7 ± 13% | maximal % inhibition of viability (UT-SCC-106A [7]; [12]): 21.3 ± 5% | maximal % inhibition of viability (UT-SCC-106A [7]; [13]): 50.1 ± 11% | maximal % inhibition of viability (UT-SCC-24A [8]; [9]): 51.3 ± 40% | maximal % inhibition of viability (UT-SCC-24A [8]; [10]): 33.2 ± 13% | maximal % inhibition of viability (UT-SCC-24A [8]; [11]): 31.5 ± 13% | maximal % inhibition of viability (UT-SCC-24A [8]; [12]): 26.8 ± 1.4% | maximal % inhibition of viability (UT-SCC-24A [8]; [13]): 28.2 ± 2.9%
